# Reference: publication PMC12858405, “Ideal efficacy photoswitching for chromocontrol of TRPC4/5 channel functions in live tissues” (Nature Chemical Biology, 2026)
# Assays:
# [1] = tested on: mouse ileal or jejuneal segments; assay: Myographic isometric contractility of intestinal segments during photoswitching
# Excerpt: Basal tension was then restored under 447-nm light and 365/447-nm cycling could be repeated many times (Fig. 6e). […]
# 7 Spontaneous motility and isometric contractility (Fig. 6)
# After sacrificing mice in accordance to the European (Council Directive 2010/63/EU) and German guidelines for the welfare of experimental animals, the abdomen was opened, and intestinal loops were mobilised. Ileal segments were obtained starting 10 mm from the ileocoecal junction. Ileal segments with a length of 3 mm for myography experiments or with a length of 8-12 mm for observation of spontaneous movement were cut out and flushed with carbogen-equilibrated KBRS.
# The adventitial layer was carefully peeled off, using a pair of forceps. The remaining intestinal segments, comprising mucosal, submucosal and muscular layers were placed in carbogen-saturated KBRS and immediately used for the experiments. Throughout these experiments, "wild-type" mice have the same genetic background as the knockout mice. For myography experiments, intestinal segments were prepared from mice at the age of 4-7 months. Wild-type control mice were matched in age to the respective knock-out animals.
# Mice were housed in groups of two to three animals under the approved standard conditions including a 12 h light-dark-regime and access to food and water ad libitum (see above). Strains for testing intestinal contractility were C57BL6/N mice (from Charles River) and homozygous TRPC5 or TRPC4 single knockout mice,80 both back-crossed on the C57BL6/N background for at least five generations. All mice were of male sex. […]
# Myographic isometric contractility: The contractile forces exerted by the circular layer of intestinal segments were quantitatively assessed by measurement in a 4-channel calibrated multi myograph device (DMT 620M, Danish Myo Technology, Hinnerup, Denmark), with digital data acquisition controlled by Labchart software (Version v8; ADINSTRUMENTS). Heated (37°C) bath chambers were filled with carbogen-equilibrated KBRS, and typically 3-mm ileal segments were manoeuvred over custom-made u-shaped hooks that prevented the mucosal layer from prolapsing on the edges. A pre-tension of typically 1.5-2 mN/mm was applied, and ileal segments were allowed […]
# solvent (0.5% DMSO). After renewing the pre-tension, the recording of isometric contractions was started, while applying alternating illuminations typically at 365 nm and 447 nm, or else at 385 nm and 470 nm, (typically 10 s exposure each) over typically 9-11 cycles, with no additional illumination […]
# segments (N/m) (Fig. 6d-h, Supplementary Fig. 23c-g).
# 7.1.1 First Saturate with Ligand, Then Dial the Wavelength
# Even in the usually tricky situation that a targeted biological effect only occurs when a protein target is partially but not fully stimulated (here: physiology-like contractility as in Fig. 6e, with the overlay of the normal oscillatory frequncy), ideal efficacy switches are still perfectly capable of addressing them robustly. What is possible in the rare case that only fixed operating wavelengths may be available [e.g. in Fig. 6ef, if only 365 nm and 447 nm would be available], would be to use a sub-
# heteromeric TRPC5:TRPC1 = molecular target: T1, heteromeric TRPC5:TRPC1 (Homo sapiens, UniProt Q9UL62); set-up: method as in earlier work; settings: supplement cites it as ref 8; cited from earlier work
# T1 construct: expressed in transfected cells; host or cells: HEK293, transiently transfected
# T1 sequence (Q9UL62 whole entry): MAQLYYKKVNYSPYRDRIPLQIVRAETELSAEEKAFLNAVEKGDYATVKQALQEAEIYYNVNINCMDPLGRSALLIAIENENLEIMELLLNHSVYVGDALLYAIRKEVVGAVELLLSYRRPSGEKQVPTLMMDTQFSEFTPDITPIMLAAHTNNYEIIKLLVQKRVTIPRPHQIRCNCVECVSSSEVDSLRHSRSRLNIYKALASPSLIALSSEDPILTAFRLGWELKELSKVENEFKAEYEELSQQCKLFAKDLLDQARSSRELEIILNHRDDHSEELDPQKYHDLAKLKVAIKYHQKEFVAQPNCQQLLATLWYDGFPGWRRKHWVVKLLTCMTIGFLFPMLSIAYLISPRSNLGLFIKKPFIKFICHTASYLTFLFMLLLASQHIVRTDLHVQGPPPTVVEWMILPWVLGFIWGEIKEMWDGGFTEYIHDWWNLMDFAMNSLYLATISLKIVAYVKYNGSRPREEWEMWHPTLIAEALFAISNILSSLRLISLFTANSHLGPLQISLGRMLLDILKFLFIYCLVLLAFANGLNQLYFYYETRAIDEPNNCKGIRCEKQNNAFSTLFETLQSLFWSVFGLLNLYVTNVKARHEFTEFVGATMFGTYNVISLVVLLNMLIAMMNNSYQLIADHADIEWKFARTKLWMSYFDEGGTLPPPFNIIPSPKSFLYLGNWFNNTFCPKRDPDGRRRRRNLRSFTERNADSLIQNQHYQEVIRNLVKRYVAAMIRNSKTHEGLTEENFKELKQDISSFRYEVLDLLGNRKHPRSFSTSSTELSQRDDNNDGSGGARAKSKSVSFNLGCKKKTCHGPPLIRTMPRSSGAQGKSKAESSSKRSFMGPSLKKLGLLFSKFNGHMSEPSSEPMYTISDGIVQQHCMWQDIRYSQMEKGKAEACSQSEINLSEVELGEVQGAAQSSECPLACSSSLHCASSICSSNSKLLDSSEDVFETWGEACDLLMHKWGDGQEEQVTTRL
# T1 sequence (P48995 whole entry partner): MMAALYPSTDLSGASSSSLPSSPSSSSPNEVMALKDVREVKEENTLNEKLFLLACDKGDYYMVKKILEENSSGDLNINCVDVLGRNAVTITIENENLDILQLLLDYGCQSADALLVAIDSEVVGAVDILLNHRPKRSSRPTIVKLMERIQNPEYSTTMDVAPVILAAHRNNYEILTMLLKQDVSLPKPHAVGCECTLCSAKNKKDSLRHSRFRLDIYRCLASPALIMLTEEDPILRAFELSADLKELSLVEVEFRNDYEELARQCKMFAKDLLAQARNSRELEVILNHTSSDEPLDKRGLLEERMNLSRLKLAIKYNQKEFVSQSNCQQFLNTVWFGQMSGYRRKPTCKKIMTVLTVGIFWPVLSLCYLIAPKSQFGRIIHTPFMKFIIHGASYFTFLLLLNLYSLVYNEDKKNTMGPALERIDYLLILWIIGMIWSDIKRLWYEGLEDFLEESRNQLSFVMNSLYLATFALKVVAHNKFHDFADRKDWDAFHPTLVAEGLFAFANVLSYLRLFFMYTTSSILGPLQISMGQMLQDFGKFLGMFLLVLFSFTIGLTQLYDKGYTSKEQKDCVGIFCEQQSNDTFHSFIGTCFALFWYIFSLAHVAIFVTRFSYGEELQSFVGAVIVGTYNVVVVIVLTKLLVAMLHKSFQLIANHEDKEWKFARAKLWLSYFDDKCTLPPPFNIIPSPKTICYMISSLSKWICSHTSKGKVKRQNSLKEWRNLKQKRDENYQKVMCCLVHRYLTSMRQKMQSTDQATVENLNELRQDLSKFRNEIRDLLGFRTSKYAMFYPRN
SMILES,"Response of segments of TRPC4-deficient mice ([1]; 3 nM, 365/447 nm)","Increase of oscillatory forces under 365 nm ([1]; 3 nM, wild-type segments) [×]","Time to recovery of oscillatory contractions under 447 nm ([1]; 30 nM, after 365 nm rictus-like state) [s]","Effect of 365 nm at moderate to high concentration ([1]; 30 nM, 365 nm)","Photoswitchability after medium replacement ([1]; 300 nM preincubated 2 h, then washed 2 h, 385/470 nm)","Effect of 385 nm at saturating concentration ([1]; 300 nM, 385 nm)",Tonic and oscillatory force photoresponses in TRPC5-deficient mice vs matched control mice ([1]; 365/447 nm),Activation of heteromeric TRPC1:TRPC5 (heteromeric TRPC5:TRPC1)
Cn1c(=O)n(CCCO)c(=O)c2c1nc(Oc1ccc(N=Nc3ccccc3)c(OC(F)(F)F)c1)n2Cc1ccc(Cl)cc1 [AzPico],never responded,1.9,10 to 30,rictus-like intestinal tensioning and rundown,remain perfectly photoreversibly operable,only partial channel activation,indistinguishable,
"Cn1c(=O)n(CCCO)c(=O)c2c1nc(Oc1ccc(Cl)c(OC(F)(F)F)c1)n2Cc1ccc(Cl)cc1 [AM237, reference compound]",,,,,,,,does not activate
